Measured values taken from US20260200947A1, “FUSED CYCLIC COMPOUNDS AND USE THEREOF” (Jacobio Pharmaceuticals Co., Ltd., priority 2022, published 2026).

Each compound was assayed on SW620 cells (K-Ras G12V) (assay: Phospho-ERK1/2(THR202/TYR204) HTRF assay, SW620). Details: Homo sapiens, SW-620, 2 hours incubation, read-out: pERK, IC50, SW620.
Format: cell-based

SMILES | IC50 [nM]
C#Cc1c(F)ccc2cc(N)cc(-c3nc4c5c(nc(OC[C@@]67CCCN6C[C@H](F)C7)nc5c3F)N3CCC=CC[C@H]3C4=C)c12 [Compound 67] | 8.74
C[C@H]1CCOC[C@H]2N(C)c3nc(-c4cc(O)cc5ccc(F)c(Cl)c45)c(F)c4nc(OC[C@@]56CCCN5C[C@H](F)C6)nc(c34)N12 [Compound 119] | 13

What follows are compounds tested on SW620 cells (K-Ras G12V) (assay: not given). Details: not given.

SMILES | IC50 [nM]
C#Cc1c(F)ccc2cc(N)cc(-c3nc4c5c(nc(OC[C@@]67CCCN6C[C@H](F)C7)nc5c3F)N3CCC=CC[C@H]3C4=C)c12 [Compound 67] | 16.2
C[C@H]1CCOC[C@H]2N(C)c3nc(-c4cc(O)cc5ccc(F)c(Cl)c45)c(F)c4nc(OC[C@@]56CCCN5C[C@H](F)C6)nc(c34)N12 [Compound 119] | 14.7
C#Cc1c(F)ccc2cc(N)cc(-c3nc4c5c(nc(OC[C@@]67CCCN6C[C@H](F)C7)nc5c3F)N3[C@H](C)CCOC[C@H]3N4C)c12 [Compound 41] | 40.1
C#Cc1c(F)ccc2cc(N)cc(-c3nc4c5c(nc(OC[C@@]67CCCN6C[C@H](F)C7)nc5c3F)N3CC(C)(O)CC[C@H]3CO4)c12 (stereo partly shown) [Compound 30] | 436
C#Cc1c(F)ccc2cc(N)cc(-c3nc4c5c(nc(OC[C@@]67CCCN6C[C@H](F)C7)nc5c3F)N3CCCC/C(=C/F)C3N4C)c12 (stereo partly shown) [Compound 86] | 412
C#Cc1c(F)ccc2cc(N)cc(-c3nc4c5c(nc(OC[C@@]67CCCN6C[C@H](F)C7)nc5c3F)N3CC(F)COC[C@@H]3CO4)c12 (stereo partly shown) [Compound 29] | 158

Each compound was assayed against GDP-KRAS G12V (Homo sapiens, UniProt P01116, G12V) (assay: biochemical). Details: not given.
Chain of GDP-KRAS G12V (P01116 1-169 isoform P01116-2 G12V): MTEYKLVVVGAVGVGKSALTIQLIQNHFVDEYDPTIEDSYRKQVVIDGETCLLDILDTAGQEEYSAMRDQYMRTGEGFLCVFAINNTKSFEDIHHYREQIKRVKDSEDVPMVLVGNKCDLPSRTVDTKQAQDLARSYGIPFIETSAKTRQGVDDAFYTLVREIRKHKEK

SMILES | IC50 [nM]
C#Cc1c(F)ccc2cc(N)cc(-c3nc4c5c(nc(OC[C@@]67CCCN6C[C@H](F)C7)nc5c3F)N3C/C(=N\OC)COC[C@@H]3N4C)c12 [Compound 148] | 403
C#Cc1c(F)ccc2cc(N)cc(-c3nc4c5c(nc(OC[C@@]67CCCN6C[C@H](F)C7)nc5c3F)N3CCC=CC[C@H]3C4=C)c12 [Compound 67] | 1.36
C#Cc1c(F)ccc2cc(N)cc(-c3nc4c5c(nc(OC[C@@]67CCCN6C[C@H](F)C7)nc5c3F)N3CCCOCC3N4C(C)=O)c12 (stereo partly shown) [Compound 78] | 10
C#Cc1c(F)ccc2cc(N)cc(-c3nc4c5c(nc(OC[C@@]67CCCN6C[C@H](F)C7)nc5c3F)N3CC(F)CC[C@H](F)[C@H]3N4C)c12 (stereo partly shown) [Compound 134] | 1.44
C[C@H]1CCOC[C@H]2N(C)c3nc(-c4cc(O)cc5ccc(F)c(Cl)c45)c(F)c4nc(OC[C@@]56CCCN5C[C@H](F)C6)nc(c34)N12 [Compound 119] | 0.815
C#Cc1c(F)ccc2cc(N)cc(-c3nc4c5c(nc(OC[C@@]67CCCN6C[C@H](F)C7)nc5c3F)N3C(C(F)F)CCOCC3N4C)c12 (stereo partly shown) [Compound 52] | 1.34
C#Cc1c(F)ccc2cc(N)cc(-c3nc4c5c(nc(OC[C@@]67CCCN6C[C@H](F)C7)nc5c3F)N3[C@H](C)CCOC[C@H]3N4C)c12 [Compound 41] | 4.31
C#Cc1c(F)ccc2cc(N)cc(-c3nc4c5c(nc(OC[C@@]67CCCN6C[C@H](F)C7)nc5c3F)N3C(C5CCC5)CCOCC3N4C)c12 (stereo partly shown) [Compound 105] | 19.5
C[C@H]1CCOC[C@H]2COc3c(Cl)c(-c4ccc(F)c5sc(N)c(C#N)c45)c(F)c4nc(OC[C@@]56CCCN5C[C@H](F)C6)nc(c34)N21 (atropisomer, axis not shown) [Compound 158A] | 0.939
C#Cc1c(F)ccc2cc(N)cc(-c3nc4c5c(nc(OC[C@@]67CCCN6C[C@H](F)C7)nc5c3F)N3CCCC(F)(F)C3CO4)c12 (stereo partly shown) [Compound 28] | 18.1
C#Cc1c(F)ccc2cc(N)cc(-c3nc4c5c(nc(OC[C@@]67CCCN6C[C@H](F)C7)nc5c3F)N3CCCC(O)CC3N4C)c12 (stereo partly shown) [Compound 87] | 29.9
C#Cc1c(F)ccc2cc(N)cc(-c3nc4c5c(nc(OC[C@@]67CCCN6C[C@H](F)C7)nc5c3F)N3CCCC/C(=C/F)C3N4C)c12 (stereo partly shown) [Compound 86] | 9.94

The compounds below were run against GppNp-KRAS G12V (Homo sapiens, UniProt P01116, G12V) (assay: biochemical). Details: not given.
Chain of GppNp-KRAS G12V (P01116 1-169 isoform P01116-2 G12V): as above

SMILES | IC50 [nM]
C#Cc1c(F)ccc2cc(N)cc(-c3nc4c5c(nc(OC[C@@]67CCCN6C[C@H](F)C7)nc5c3F)N3C/C(=N\OC)COC[C@@H]3N4C)c12 [Compound 148] | > 1000
C#Cc1c(F)ccc2cc(N)cc(-c3nc4c5c(nc(OC[C@@]67CCCN6C[C@H](F)C7)nc5c3F)N3CCC=CC[C@H]3C4=C)c12 [Compound 67] | 113
C#Cc1c(F)ccc2cc(N)cc(-c3nc4c5c(nc(OC[C@@]67CCCN6C[C@H](F)C7)nc5c3F)N3CCCOCC3N4C(C)=O)c12 (stereo partly shown) [Compound 78] | > 1000
C#Cc1c(F)ccc2cc(N)cc(-c3nc4c5c(nc(OC[C@@]67CCCN6C[C@H](F)C7)nc5c3F)N3CC(F)CC[C@H](F)[C@H]3N4C)c12 (stereo partly shown) [Compound 134] | 50.4
C[C@H]1CCOC[C@H]2N(C)c3nc(-c4cc(O)cc5ccc(F)c(Cl)c45)c(F)c4nc(OC[C@@]56CCCN5C[C@H](F)C6)nc(c34)N12 [Compound 119] | 233
C#Cc1c(F)ccc2cc(N)cc(-c3nc4c5c(nc(OC[C@@]67CCCN6C[C@H](F)C7)nc5c3F)N3C(C(F)F)CCOCC3N4C)c12 (stereo partly shown) [Compound 52] | 363
C#Cc1c(F)ccc2cc(N)cc(-c3nc4c5c(nc(OC[C@@]67CCCN6C[C@H](F)C7)nc5c3F)N3[C@H](C)CCOC[C@H]3N4C)c12 [Compound 41] | > 1000
C#Cc1c(F)ccc2cc(N)cc(-c3nc4c5c(nc(OC[C@@]67CCCN6C[C@H](F)C7)nc5c3F)N3C(C5CCC5)CCOCC3N4C)c12 (stereo partly shown) [Compound 105] | > 1000
C[C@H]1CCOC[C@H]2COc3c(Cl)c(-c4ccc(F)c5sc(N)c(C#N)c45)c(F)c4nc(OC[C@@]56CCCN5C[C@H](F)C6)nc(c34)N21 (atropisomer, axis not shown) [Compound 158A] | 4.93
C#Cc1c(F)ccc2cc(N)cc(-c3nc4c5c(nc(OC[C@@]67CCCN6C[C@H](F)C7)nc5c3F)N3CCCC(O)CC3N4C)c12 (stereo partly shown) [Compound 87] | > 1000
C#Cc1c(F)ccc2cc(N)cc(-c3nc4c5c(nc(OC[C@@]67CCCN6C[C@H](F)C7)nc5c3F)N3CCCC/C(=C/F)C3N4C)c12 (stereo partly shown) [Compound 86] | > 1000

The compounds below were run against GDP-KRAS G12D (Homo sapiens, UniProt P01116, G12D) (assay: biochemical). Details: not given.
Chain of GDP-KRAS G12D (P01116 1-169 isoform P01116-2 G12D): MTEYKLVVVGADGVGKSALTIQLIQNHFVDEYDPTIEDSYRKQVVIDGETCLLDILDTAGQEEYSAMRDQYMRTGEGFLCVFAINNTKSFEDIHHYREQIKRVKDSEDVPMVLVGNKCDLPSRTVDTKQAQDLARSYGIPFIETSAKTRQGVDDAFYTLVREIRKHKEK

SMILES | IC50 [nM]
C#Cc1c(F)ccc2cc(N)cc(-c3nc4c5c(nc(OC[C@@]67CCCN6C[C@H](F)C7)nc5c3F)N3C/C(=N\OC)COC[C@@H]3N4C)c12 [Compound 148] | 287
C#Cc1c(F)ccc2cc(N)cc(-c3nc4c5c(nc(OC[C@@]67CCCN6C[C@H](F)C7)nc5c3F)N3CCC=CC[C@H]3C4=C)c12 [Compound 67] | 1.72
C#Cc1c(F)ccc2cc(N)cc(-c3nc4c5c(nc(OC[C@@]67CCCN6C[C@H](F)C7)nc5c3F)N3CCCOCC3N4C(C)=O)c12 (stereo partly shown) [Compound 78] | 21.3
C#Cc1c(F)ccc2cc(N)cc(-c3nc4c5c(nc(OC[C@@]67CCCN6C[C@H](F)C7)nc5c3F)N3CC(F)CC[C@H](F)[C@H]3N4C)c12 (stereo partly shown) [Compound 134] | 1.75
C[C@H]1CCOC[C@H]2N(C)c3nc(-c4cc(O)cc5ccc(F)c(Cl)c45)c(F)c4nc(OC[C@@]56CCCN5C[C@H](F)C6)nc(c34)N12 [Compound 119] | 1.53
C#Cc1c(F)ccc2cc(N)cc(-c3nc4c5c(nc(OC[C@@]67CCCN6C[C@H](F)C7)nc5c3F)N3C(C(F)F)CCOCC3N4C)c12 (stereo partly shown) [Compound 52] | 2.83
C#Cc1c(F)ccc2cc(N)cc(-c3nc4c5c(nc(OC[C@@]67CCCN6C[C@H](F)C7)nc5c3F)N3[C@H](C)CCOC[C@H]3N4C)c12 [Compound 41] | 5.51
C#Cc1c(F)ccc2cc(N)cc(-c3nc4c5c(nc(OC[C@@]67CCCN6C[C@H](F)C7)nc5c3F)N3C(C5CCC5)CCOCC3N4C)c12 (stereo partly shown) [Compound 105] | 44.1
C[C@H]1CCOC[C@H]2COc3c(Cl)c(-c4ccc(F)c5sc(N)c(C#N)c45)c(F)c4nc(OC[C@@]56CCCN5C[C@H](F)C6)nc(c34)N21 (atropisomer, axis not shown) [Compound 158A] | 0.996
C#Cc1c(F)ccc2cc(N)cc(-c3nc4c5c(nc(OC[C@@]67CCCN6C[C@H](F)C7)nc5c3F)N3CCCC(F)(F)C3CO4)c12 (stereo partly shown) [Compound 28] | 13
C#Cc1c(F)ccc2cc(N)cc(-c3nc4c5c(nc(OC[C@@]67CCCN6C[C@H](F)C7)nc5c3F)N3CCCC(O)CC3N4C)c12 (stereo partly shown) [Compound 87] | 33.3
C#Cc1c(F)ccc2cc(N)cc(-c3nc4c5c(nc(OC[C@@]67CCCN6C[C@H](F)C7)nc5c3F)N3CCCC/C(=C/F)C3N4C)c12 (stereo partly shown) [Compound 86] | 10.3

What follows are compounds tested on AsPC-1 cells (K-Ras G12D) (assay: not given). Details: not given.

SMILES | IC50 [nM]
C#Cc1c(F)ccc2cc(N)cc(-c3nc4c5c(nc(OC[C@@]67CCCN6C[C@H](F)C7)nc5c3F)N3CCC=CC[C@H]3C4=C)c12 [Compound 67] | 136
C[C@H]1CCOC[C@H]2N(C)c3nc(-c4cc(O)cc5ccc(F)c(Cl)c45)c(F)c4nc(OC[C@@]56CCCN5C[C@H](F)C6)nc(c34)N12 [Compound 119] | 52.1
C#Cc1c(F)ccc2cc(N)cc(-c3nc4c5c(nc(OC[C@@]67CCCN6C[C@H](F)C7)nc5c3F)N3[C@H](C)CCOC[C@H]3N4C)c12 [Compound 41] | 1140
C#Cc1c(F)ccc2cc(N)cc(-c3nc4c5c(nc(OC[C@@]67CCCN6C[C@H](F)C7)nc5c3F)N3CC(F)COC[C@@H]3CO4)c12 (stereo partly shown) [Compound 29] | 620

These compounds were tested against GppNp-KRAS G12D (Homo sapiens, UniProt P01116, G12D) (assay: biochemical). Details: not given.
Chain of GppNp-KRAS G12D (P01116 1-169 isoform P01116-2 G12D): as above

SMILES | IC50 [nM]
C#Cc1c(F)ccc2cc(N)cc(-c3nc4c5c(nc(OC[C@@]67CCCN6C[C@H](F)C7)nc5c3F)N3C/C(=N\OC)COC[C@@H]3N4C)c12 [Compound 148] | > 1000
C#Cc1c(F)ccc2cc(N)cc(-c3nc4c5c(nc(OC[C@@]67CCCN6C[C@H](F)C7)nc5c3F)N3CCC=CC[C@H]3C4=C)c12 [Compound 67] | 59.9
C#Cc1c(F)ccc2cc(N)cc(-c3nc4c5c(nc(OC[C@@]67CCCN6C[C@H](F)C7)nc5c3F)N3CCCOCC3N4C(C)=O)c12 (stereo partly shown) [Compound 78] | > 1000
C#Cc1c(F)ccc2cc(N)cc(-c3nc4c5c(nc(OC[C@@]67CCCN6C[C@H](F)C7)nc5c3F)N3CC(F)CC[C@H](F)[C@H]3N4C)c12 (stereo partly shown) [Compound 134] | 21.6
C[C@H]1CCOC[C@H]2N(C)c3nc(-c4cc(O)cc5ccc(F)c(Cl)c45)c(F)c4nc(OC[C@@]56CCCN5C[C@H](F)C6)nc(c34)N12 [Compound 119] | 71.1
C#Cc1c(F)ccc2cc(N)cc(-c3nc4c5c(nc(OC[C@@]67CCCN6C[C@H](F)C7)nc5c3F)N3C(C(F)F)CCOCC3N4C)c12 (stereo partly shown) [Compound 52] | 146
C#Cc1c(F)ccc2cc(N)cc(-c3nc4c5c(nc(OC[C@@]67CCCN6C[C@H](F)C7)nc5c3F)N3[C@H](C)CCOC[C@H]3N4C)c12 [Compound 41] | 376
C#Cc1c(F)ccc2cc(N)cc(-c3nc4c5c(nc(OC[C@@]67CCCN6C[C@H](F)C7)nc5c3F)N3C(C5CCC5)CCOCC3N4C)c12 (stereo partly shown) [Compound 105] | > 1000
C[C@H]1CCOC[C@H]2COc3c(Cl)c(-c4ccc(F)c5sc(N)c(C#N)c45)c(F)c4nc(OC[C@@]56CCCN5C[C@H](F)C6)nc(c34)N21 (atropisomer, axis not shown) [Compound 158A] | 10.8
C#Cc1c(F)ccc2cc(N)cc(-c3nc4c5c(nc(OC[C@@]67CCCN6C[C@H](F)C7)nc5c3F)N3CCCC(O)CC3N4C)c12 (stereo partly shown) [Compound 87] | 882
C#Cc1c(F)ccc2cc(N)cc(-c3nc4c5c(nc(OC[C@@]67CCCN6C[C@H](F)C7)nc5c3F)N3CCCC/C(=C/F)C3N4C)c12 (stereo partly shown) [Compound 86] | > 1000
